In PubChem BioAssay (NCI):
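The concentration for 50% growth inhibition is given as GI50. TGI is the concentration that stops growth completely.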

Tests used:
Experiment in all cases: NCI tumour cell line growth inhibition, 384-well format
[1] = system: A549 NSCLC
[2] = system: SNB-75 CNS
[3] = system: BT-549 breast
[4] = system: NCI-H522 lung
[5] = system: HS 578T breast
[6] = system: MCF7 breast
[7] = system: SF-295 CNS
[8] = system: 786-0 renal
[9] = system: HT29 colon
[10] = system: SW-620 colon
[11] = system: SF-539 CNS
[12] = system: HCT-15 colon
[13] = system: RXF 393 renal

O=C(NCc1ccncc1)C12CC3CC(C1)CC(c1ccc(Cl)cc1)(C3)C2
GI50 [1]: 13.6 µM | TGI [1]: 26.7 µM | GI50 [2]: 15 µM | TGI [2]: 28.3 µM | GI50 [3]: 8.85 µM | TGI [3]: 21.5 µM | GI50 [4]: 11.5 µM | TGI [4]: 23.9 µM | GI50 [5]: 11.8 µM | TGI [5]: 24.2 µM | GI50 [6]: 10.4 µM | TGI [6]: 23.5 µM | GI50 [7]: 14.1 µM | TGI [7]: 27.2 µM | GI50 [8]: 13.4 µM | TGI [8]: 26.3 µM | GI50 [9]: 12.1 µM | TGI [9]: 24.8 µM | GI50 [10]: 13.7 µM | TGI [10]: 26.8 µM | GI50 [11]: 16 µM | TGI [11]: 29.7 µM | GI50 [12]: 11.7 µM | TGI [12]: 24.9 µM | GI50 [13]: 7.13 µM | TGI [13]: 20 µM

Cc1ncsc1-c1ccc(CNC(=O)[C@@H]2C[C@@H](O)CN2C(=O)[C@@H](NC(=O)C2(C#N)CC2)C(C)(C)C)cc1
GI50 [1]: > 100 µM | TGI [1]: > 100 µM | GI50 [2]: > 94.8 µM | TGI [2]: > 100 µM | GI50 [3]: > 100 µM | TGI [3]: > 100 µM | GI50 [4]: > 100 µM | TGI [4]: > 100 µM | GI50 [5]: > 100 µM | TGI [5]: > 100 µM | GI50 [6]: > 100 µM | TGI [6]: > 100 µM | GI50 [7]: > 100 µM | TGI [7]: > 100 µM | GI50 [8]: > 100 µM | TGI [8]: > 100 µM | GI50 [9]: > 100 µM | TGI [9]: > 100 µM | GI50 [10]: > 100 µM | TGI [10]: > 100 µM | GI50 [11]: > 100 µM | TGI [11]: > 100 µM | GI50 [12]: > 100 µM | TGI [12]: > 100 µM | GI50 [13]: > 100 µM | TGI [13]: > 100 µM
